The target in one data set is ClpP1P2 (ClpP1) (Mycobacterium tuberculosis, UniProt P9WPC3+P9WPC5). In kind it is biochemical.
Data set [1] relates to Nc1ncnc2c1ncn2[C@@H]1O[C@H](COP(=O)(O)OP(=O)(O)OP(=O)(O)O)[C@@H](O)[C@H]1O. Description: purified protein.

What is called IC50 is the concentration that gives 50% inhibition. High values mean a need for much substance, low ones inhibition by little substance. The term Km denotes the concentration of substrate that gives half-maximal velocity.

Sequence of ClpP1P2 (ClpP1) (P9WPC5 whole entry, looked up): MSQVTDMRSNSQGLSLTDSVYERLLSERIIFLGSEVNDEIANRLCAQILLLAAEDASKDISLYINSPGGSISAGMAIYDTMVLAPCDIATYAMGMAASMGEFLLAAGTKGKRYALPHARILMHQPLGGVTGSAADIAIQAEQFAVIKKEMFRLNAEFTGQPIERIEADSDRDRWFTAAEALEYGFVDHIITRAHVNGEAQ
Sequence of ClpP1P2 (ClpP1) (P9WPC3 whole entry, looked up): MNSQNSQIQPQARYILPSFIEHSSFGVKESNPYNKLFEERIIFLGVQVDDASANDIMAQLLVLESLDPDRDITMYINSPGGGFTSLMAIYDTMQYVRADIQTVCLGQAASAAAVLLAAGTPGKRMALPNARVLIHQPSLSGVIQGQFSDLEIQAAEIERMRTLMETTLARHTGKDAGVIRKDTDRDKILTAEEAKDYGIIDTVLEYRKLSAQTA

Turning to `O=c1oc(Cl)c(Cl)c2ccccc12` [DCC, 3,4-Dichloroisocoumarin], at ClpP1P2 (ClpP1), the IC50 is 80 µM.

As for “ClpC1 (Mycobacterium tuberculosis H37Rv)”, the Km in data set [1] came to 1400 ± 100 µM.

These data come from PMC6484444 (Analytical biochemistry, 2018).
